Assay results reported in patent US5728815A, “Bone and prostate-derived protein factors affecting prostate cancer growth, differentiation, and metastasis” (priority 1994, dated 1998).
One block for each molecule: values may come before it.

Columns and labels:
prostate tumor cell = settings: both in vitro and in vivo; cited from earlier work
[1] = prevents clinical use in human treatment; cited from earlier work
[2] = system: PSA mRNA in parental LNCaP cells; assay: PSA gene expression, Northern analysis of PSA mRNA; type: cell-based, human; settings: for steady-state levels of PSA mRNA: parental LNCaP cells, result in words; for Relative PSA mRNA level: 48 h, control defined as 1.0
Protocol: FIG. 6A. The effect of PSA gene expression in parental LNCaP cells treated with a variety of growth factors. The parental LNCaP cells were incubated with agents as indicated (control cells were incubated with T medium containing 2% TCM). Forty-eight hours after treatment, total cellular RNA was prepared and 20 μg of total cellular RNA was subjected to Northern analysis. Relative PSA mRNA levels (in parenthesis) were determined by densitometrical quantification, and the control is defined as 1.0; (A) TGF-α 100 (0.98); TGF-α 10 (1.01); TGF-α 1 (1.15); bFGF 100 (1.22); bFGF 10 (1.04); bFGF 1 (0.97); TGF-β 0.01 (0.72); TGF-β 0.1 (0.84); TGF-β 1 (0.53); NGF 1 (1.13); NGF 100 (1.08),
FIG. 6B. The effect of PSA gene expression in parental LNCaP cells treated with a neuropeptide and a variety of α1 and β2-adrenergic agonists. I, bombesin 100 (0.62); bombesin 10 (0.89); II. isoproterenol 100 (0.51); isoproterenol 10 (1.11); isoproterenol 1 (1.07); III. dibutyryl cAMP 0.01 (1.09); dibutyryl cAMP 0.1 (1.11); dibutyryl cAMP 1.0 (1.23); IV. phenylephrine 1 (1.10); phenylephrine 10 (1.08); phenylephrine 100 (1.14).
Total cellular RNA was prepared from frozen tissues by the 4M guanidinium thiocyanate extraction method (Chomcjymski & Sacchi, 1987). Typical yields of total cellular RNA were about 300 μg/200 mg tissue as quantified spectrophotometrically using 40 μg RNA/A260 unit. RNA was denatured in 50% formamide/18% formaldehyde at 55° C. and fractionated by electrophoresis in a 0.9% denaturing formaldehyde agarose gel. Samples were transferred onto a Zetaprobe membrane (Bio-Rad) by capillary method, and the membrane was then baked for 2 hours at 80° C. The membrane was then prehybridized in the presence of 1M NaCl, 10% dextran sulfate, 1% SDS, and 200 μg/ml salmon sperm DNA for at least 2 hours at 65° C. Hybridization was carried out at 65° C. overnight with a random-primer-labeled probe as indicated. The PSA cDNA, and sequence specific hGK-1 and PSA oligonucleotide probes were obtained from Dr. D. Tindall (Mayo Clinic, Rochester, Minn.) (Lundwall & Lilja, 1987). Finally, the membrane was washed under high stringency conditions (0.5×SSC, 1% SDS at 65° C.). Autoradiograms were prepared by exposing Kodak X-Omat AR film to the membrane at -80° C. with intensifying screens.

SMILES: Cc1ccc(C(=O)Nc2ccc(S(=O)(=O)O)c3cc(S(=O)(=O)O)cc(S(=O)(=O)O)c23)cc1NC(=O)c1cccc(NC(=O)Nc2cccc(C(=O)Nc3cc(C(=O)Nc4ccc(S(=O)(=O)O)c5cc(S(=O)(=O)O)cc(S(=O)(=O)O)c45)ccc3C)c2)c1 [suramin]
prostate tumor cell growth (prostate tumor cell): inhibit prostate tumor cell growth | toxicity in vivo [1]: extreme toxicity

SMILES: CNC[C@H](O)c1cccc(O)c1 [phenylephrine]
steady-state levels of PSA mRNA [2]: no apparent increases

SMILES: CC(C)NCC(O)c1ccc(O)c(O)c1 (centres unmarked) [isoproterenol]
Relative PSA mRNA level ([2]; concentration 1 (unit not given)): 1.07 | Relative PSA mRNA level ([2]; concentration 10 (unit not given)): 1.11 | Relative PSA mRNA level ([2]; concentration 100 (unit not given)): 0.51 | steady-state levels of PSA mRNA [2]: no apparent increases

Relative PSA mRNA level ([2]; concentration 0.01 (unit not given)): 1.09 | Relative PSA mRNA level ([2]; concentration 0.1 (unit not given)): 1.11 | Relative PSA mRNA level ([2]; concentration 1.0 (unit not given)): 1.23
SMILES: CCCC(=O)Nc1ncnc2c1ncn2[C@@H]1O[C@@H]2COP(=O)(O)O[C@H]2[C@H]1OC(=O)CCC [dibutyryl cAMP]
steady-state levels of PSA mRNA [2]: no apparent increases
